# Results reported in US20110237672A1, “Use of a cysteine-containing substance to increase the ventilatory activity and erythropoietin production” (2458781 CANADA INC., priority 2001, published 2011).
# Key:
# Assay type in all cases: in vivo, human
# [1] = placebo-controlled double-blind study: plasma acid soluble thiol and thiol/disulfide redox status; settings: healthy male subjects, NAC three doses of 600 mg per day, vs placebo-treated group
# Experimental: (§1) The placebo-controlled double-blind study was performed with healthy, normotonic male non-smoking subjects. The subjects had not taken alcohol, caffeine, or any medication at least during the last 24 hours prior to the study. Also, they had not been engaged in extensive physical exercise for at least 12 hours prior to the study. Twenty-eight subjects were recruited into the study and randomized for the treatment with NAC or placebo. NAC (200 mg capsules) or placebo were administered in three doses of 600 mg per day at 8.00 a.m., 4.00 p.m. and 11.00 p.m. The plasma concentrations of acid soluble thiol (mainly cysteine) and cystine (cysteine disulfide) were determined in the cubital venous blood by a photometric assay and by the amino acid analyzer, respectively. […] The EPO concentration in serum was determined by the help of a commercial EPO ELISA kit.
# erythropoietin (EPO) = assay: placebo-controlled double-blind study: EPO concentration by EPO ELISA kit
# Experimental: as §1
# oxygen sensors = assay: placebo-controlled double-blind study: isocapnic hypoxic ventilatory response
# Experimental: The placebo-controlled double-blind study was performed with healthy, normotonic male non-smoking subjects. The subjects had not taken alcohol, caffeine, or any medication at least during the last 24 hours prior to the study. Also, they had not been engaged in extensive physical exercise for at least 12 hours prior to the study. Twenty-eight subjects were recruited into the study and randomized for the treatment with NAC or placebo. NAC (200 mg capsules) or placebo were administered in three doses of 600 mg per day at 8.00 a.m., 4.00 p.m. and 11.00 p.m. In addition, the hypoxic ventilatory response of the subjects was quantitatively determined. The ventilatory activity was determined under two different experimental conditions using an equipment of oxychon-beta. The first measurement, the so-called “isocapnic hypoxic ventilatory response” (isocapnic HVR), was tested under normoxic conditions, i.e., under conditions of normal oxygen concentration and constant carbon dioxide concentration. The second measurement, the so-called poikilocapnic hypoxic ventilatory response (poikilocapnic HVR), was determined under normobaric conditions in a hypoxia chamber with a constant FiO2 of 12%. The term “poikilocapnic” describes study conditions characterized by a variable carbon dioxide concentration in the expiratory air, whereas the term “isocapnic” refers to conditions with a constant carbon dioxide concentration.
# [2] = summary statement of the placebo-controlled double-blind study
smiles,measurement,setting,value
"CC(=O)N[C@@H](CS)C(=O)O [NAC, N-acetylcysteine]","plasma thiol concentration (T), relative change",[1]; P<0.01 (FIG. 1),significantly increased
same,"plasma thiol/disulfide redox status (thiol^2 disulfide^−1), relative change",[1]; P<0.05 (FIG. 1),increased
same,"plasma EPO concentration after exposure to the hypoxia chamber (Eh), relative change","erythropoietin (EPO); 2 hrs after the 6-hr-exposure to the hypoxia chamber, vs placebo-treated group, P<0.05 (FIG. 1)",increased
same,"plasma EPO concentration (E), relative change","erythropoietin (EPO); before exposure to the hypoxia chamber, vs placebo-treated group, P<0.05 (FIG. 1)",increased
same,increase in plasma EPO concentration (E) between time 1 and time 2,"erythropoietin (EPO); before vs 5 days after start of treatment, P value <0.05 (FIG. 2)",significantly different from that of the placebo-treated control group
same,plasma erythropietin concentration,erythropoietin (EPO); [2],increase
same,"increase in ventilatory activity (H, isocapnic hypoxic ventilatory response) between time 1 and time 2","oxygen sensors; before vs 4 days after start of treatment, P value <0.01 (FIG. 2)",significantly different from that of the placebo-treated control group
same,"isocapnic hypoxic ventilatory response (H), relative change","oxygen sensors; healthy male subjects, NAC three doses of 600 mg per day, vs placebo-treated group (FIG. 1)",significantly increased
same,ventilatory activity,oxygen sensors; [2],increase
